# According to ChEMBL document CHEMBL1201862, “PubChem BioAssay data set” (2004):
#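 How tested: cells in 96-well plates exposed to compound for 48 hours at five concentrations. GI50 marks 50% less growth.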 Active and inactive are the calls of the source. Cut-off read from the data, not from the text of the source: active = GI50 up to about 1.1 µM and inactive = higher.
# Key:
# Assay in all cases: inhibition of tumour cell growth, NCI panel, 48 h
# [1] = test system: ACHN
# [2] = test system: BT-549
# [3] = test system: CAKI-1
# [4] = test system: CCRF-CEM
# [5] = test system: HCC 2998
# [6] = test system: HCT-116
# [7] = test system: HCT-15
# [8] = test system: HT-29
# [9] = test system: IGROV-1
# [10] = test system: K562
# [11] = test system: MCF7
# [12] = test system: MDA-N
# [13] = test system: NCI-H23
# [14] = test system: NCI-H522
# [15] = test system: PC-3
# [16] = test system: SK-MEL-28
# [17] = test system: SK-MEL-5
# [18] = test system: SNB-75
# [19] = test system: SW-620
# [20] = test system: U-251
SMILES,GI50 [1],GI50 [2],GI50 [3],GI50 [4],GI50 [5],GI50 [6],GI50 [7] [µM],GI50 [8],GI50 [9],GI50 [10],GI50 [11],GI50 [12],GI50 [13],GI50 [14],GI50 [15],GI50 [16],GI50 [17],GI50 [18],GI50 [19],GI50 [20]
CCCC(=O)NC1=C(Cl)C(=O)c2ccccc2C1=O,1.73 µM (inactive),5.43 µM (inactive),3 µM (inactive),1.32 µM (inactive),4.22 µM (inactive),1.73 µM (inactive),1.68,8.49 µM (inactive),5.07 µM (inactive),2.07 µM (inactive),2.39 µM (inactive),4.11 µM (inactive),3.03 µM (inactive),1.13 µM (inactive),3.23 µM (inactive),4.33 µM (inactive),2.67 µM (inactive),5.09 µM (inactive),1.79 µM (inactive),3.78 µM (inactive)
O=C(CNc1nccs1)Nn1cnc2ccc(S(=O)(=O)Nc3nccs3)cc2c1=O,> 100 µM (inactive),> 100 µM (inactive),> 100 µM (inactive),> 100 µM (inactive),> 100 µM (inactive),> 100 µM (inactive),> 100,> 100 µM (inactive),> 100 µM (inactive),> 100 µM (inactive),> 100 µM (inactive),> 100 µM (inactive),> 100 µM (inactive),> 100 µM (inactive),> 100 µM (inactive),> 100 µM (inactive),,> 100 µM (inactive),> 100 µM (inactive),> 100 µM (inactive)
COc1ccc(OC2OC(CO)C(O)C(O)C2O)cc1 (stereo not given),> 100 µM (inactive),> 100 µM (inactive),> 100 µM (inactive),> 100 µM (inactive),> 100 µM (inactive),> 100 µM (inactive),> 100,> 100 µM (inactive),> 100 µM (inactive),> 100 µM (inactive),> 100 µM (inactive),> 100 µM (inactive),> 100 µM (inactive),> 100 µM (inactive),> 100 µM (inactive),> 100 µM (inactive),> 100 µM (inactive),> 100 µM (inactive),> 100 µM (inactive),> 100 µM (inactive)
C=CCOC(=O)C1=C(C)N=C2N[C@H](CCCCCCCCC)C[C@@H]3CCC1N23 (stereo not given in full),21.5 µM (inactive),19.9 µM (inactive),34 µM (inactive),36.4 µM (inactive),21.9 µM (inactive),18.8 µM (inactive),21.3,27.9 µM (inactive),21.6 µM (inactive),30.3 µM (inactive),18 µM (inactive),18.4 µM (inactive),20 µM (inactive),16.7 µM (inactive),21.6 µM (inactive),21.7 µM (inactive),17.7 µM (inactive),30.5 µM (inactive),28.7 µM (inactive),20.9 µM (inactive)
COC(=O)N/N=C(\c1ccccc1)c1ccc(OC)cc1,,> 100 µM (inactive),> 100 µM (inactive),> 100 µM (inactive),> 100 µM (inactive),> 100 µM (inactive),> 100,> 100 µM (inactive),59.6 µM (inactive),> 100 µM (inactive),> 100 µM (inactive),> 100 µM (inactive),> 100 µM (inactive),> 100 µM (inactive),> 100 µM (inactive),> 100 µM (inactive),> 100 µM (inactive),78.7 µM (inactive),> 100 µM (inactive),> 100 µM (inactive)
Nc1ccc(C(=O)N2CCC[C@H]2CO)c(N)c1,> 100 µM (inactive),> 100 µM (inactive),> 100 µM (inactive),> 100 µM (inactive),> 100 µM (inactive),> 100 µM (inactive),> 100,> 100 µM (inactive),> 100 µM (inactive),> 100 µM (inactive),> 100 µM (inactive),> 100 µM (inactive),> 100 µM (inactive),> 100 µM (inactive),> 100 µM (inactive),> 100 µM (inactive),> 100 µM (inactive),> 100 µM (inactive),> 100 µM (inactive),> 100 µM (inactive)
CCOC(=O)c1nc2ccc(C(F)(F)F)cc2nc1NCc1cc(OC)c(OC)c(OC)c1,50.6 µM (inactive),> 100 µM (inactive),> 100 µM (inactive),,57.9 µM (inactive),30 µM (inactive),48.9,59.6 µM (inactive),> 100 µM (inactive),,66.5 µM (inactive),28.4 µM (inactive),59.2 µM (inactive),37.1 µM (inactive),41.9 µM (inactive),34 µM (inactive),27.7 µM (inactive),29.1 µM (inactive),54.1 µM (inactive),
